Assays:
Dermacentor variabilis = test: In vitro contact test with adult hard ticks (Dermacentor variabilis); conditions: read-out: acaricidal activity; for pest or weed control at 0.2 µg/cm2, 0.2 µg/cm2: dose 0.2 μg/cm^2, 48 h; for pest or weed control at 1 µg/cm2, 1 µg/cm2: dose 1 μg/cm^2, 48 h
Summary of the method: (§1)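 Acaricidal activity = % ticks dead or moribund after 48 h contact with acetone-deposited compound on vial walls (e.g., 900 ppm solution → 5 μg/cm^2). Ambient conditions for R. sanguineus, 21° C./85% rel. hum. for other species; heat challenge at 45-50° C. separated climbers from moribund ticks.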

Ctenocephalides felis [1] = test: In vitro contact test with fleas; conditions: read-out: insecticidal activity; for pest or weed control at 0.2 µg/cm2, 0.2 µg/cm2: dose 0.2 μg/cm^2, dead or moribund fleas after 48 h; for pest or weed control at 1 µg/cm2, 1 µg/cm2: dose 1 μg/cm^2, dead or moribund fleas after 48 h
Summary of the method: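 Activity is the percentage of fleas dead or moribund at 48 h, judged by immobility or uncoordinated movement after tapping. Tubes were coated by evaporating acetone solutions (900 ppm gives 5 μg/cm^2), then held 5-10 adult fleas of both sexes at room temperature and ambient humidity.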

Spodoptera litura = test: Insecticidal testing against common cutworm; format: in vivo; conditions: foliar, 144 h, concentration 100 ppm, cabbage leaf dip, second-stage larvae, after 6 days, read-out: pesticidal rate
Excerpt: Insecticidal Testing Against Common Cutworm (Spodoptera litura)

Plutella xylostella = test: Insecticidal testing against diamondback moth; format: in vivo; conditions: foliar, 144 h, concentration 100 ppm, cabbage leaf dip, third-stage larvae, after 6 days, read-out: pesticidal rate
Excerpt: Insecticidal Testing Against Diamondback Moth (Plutella xylostella)

Laodelphax striatellus = test: Insecticidal testing against small brown planthopper; format: in vivo; conditions: 144 h, concentration 100 ppm, sprayed rice seedlings, after 6 days, read-out: pesticidal rate
Experimental: Insecticidal Testing Against Small Brown Planthopper (Laodelphax striatellus)
An additional test was carried out with 10 small brown planthoppers by preparing an acetone solution of the testing compound diluted to a predetermined concentration, spraying the solution onto rice seedlings and air drying the rice seedlings. The medicament was all used as received. The rice seedlings were placed in a constant-temperature room at 25° C., and the survival rate was investigated after 6 days. The test was carried out by means of one group of 10 pests.

[2] = system: Rhipicephalus (Boophilus) microplus; test: In vitro injection test with Rhipicephalus (Boophilus) microplus (BOOPMI Inj); conditions: 168 h, laid fertile eggs after 7 days, read-out: acaricidal activity; for pest or weed control at 0.00016 mg: dose 0.16 μg/animal injected; for pest or weed control at 0.0008 mg: dose 0.8 μg/animal injected; for pest or weed control at 32 ng: dose 0.032 μg/animal injected
Summary of the method: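 Five engorged adult females each get a 1 μl abdominal injection of compound dissolved and diluted in DMSO. Kept 7 days at 28° C./85% rel. hum.; percent activity rates egg laying and egg fertility (0% all fertile, 100% none laid or infertile).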

Ctenocephalides felis [3] = test: Ctenocephalides felis in-vitro feeding test with fleas (CTECFE oral); conditions: 48 hours, read-out: insecticidal feeding activity; for pest or weed control at 0.032 ppm: dose 0.032 ppm in citrated cattle blood; for pest or weed control at 0.16 ppm: dose 0.16 ppm in citrated cattle blood; for pest or weed control at 0.8 ppm: dose 0.8 ppm in citrated cattle blood; for pest or weed control at 4 ppm: dose 4 ppm in citrated cattle blood
Summary of the method: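 Scored as percent fleas killed (0–100%) 48 hours after feeding began. Compound, dissolved in DMSO and diluted into citrated cattle blood, was offered via a parafilm membrane to roughly 20 adult male and female C. felis at about 37° C.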

Rhipicephalus sanguineus = test: In vitro contact test with adult hard ticks (Rhipicephalus sanguineus); conditions: read-out: acaricidal activity; for pest or weed control at 0.2 µg/cm2, 0.2 µg/cm2: dose 0.2 μg/cm^2, 48 h; for pest or weed control at 1 µg/cm2, 1 µg/cm2: dose 1 μg/cm^2, 48 h
Summary of the method: as §1

Amblyomma americanum = test: In vitro contact test with hard ticks (Amblyomma americanum nymphs); conditions: read-out: acaricidal activity; for pest or weed control at 1 µg/cm2, 1 µg/cm2: dose 1 μg/cm^2, 48 h
Summary of the method: as §1

| Compound | pest or weed control at 0.2 µg/cm2, 0.2 µg/cm2 (Dermacentor variabilis) [%] | pest or weed control at 1 µg/cm2, 1 µg/cm2 (Dermacentor variabilis) [%] | pest or weed control at 0.04 µg/cm2, 0.04 µg/cm2 (Ctenocephalides felis [1]; dose 0.04 μg/cm^2, dead or moribund fleas after 48 h) [%] | pest or weed control at 0.2 µg/cm2, 0.2 µg/cm2 (Ctenocephalides felis [1]) [%] | pest or weed control at 1 µg/cm2, 1 µg/cm2 (Ctenocephalides felis [1]) [%] | pest or weed control at 100 ppm (Spodoptera litura) [%] | pest or weed control at 100 ppm (Plutella xylostella) [%] | pest or weed control at 100 ppm (Laodelphax striatellus) [%] | pest or weed control at 0.00016 mg [2] [%] | pest or weed control at 0.0008 mg [2] [%] | pest or weed control at 0.0064 ppm (Ctenocephalides felis [3]; dose 0.0064 ppm in citrated cattle blood) [%] | pest or weed control at 0.032 ppm (Ctenocephalides felis [3]) [%] | pest or weed control at 0.16 ppm (Ctenocephalides felis [3]) [%] | pest or weed control at 0.8 ppm (Ctenocephalides felis [3]) [%] | pest or weed control at 4 ppm (Ctenocephalides felis [3]) [%] | pest or weed control at 0.2 µg/cm2, 0.2 µg/cm2 (Rhipicephalus sanguineus) [%] | pest or weed control at 1 µg/cm2, 1 µg/cm2 (Rhipicephalus sanguineus) [%] | pest or weed control at 1 µg/cm2, 1 µg/cm2 (Amblyomma americanum) [%] | pest or weed control at 32 ng [2] [%] | pest or weed control at 0.2 µg/cm2, 0.2 µg/cm2 (Amblyomma americanum; dose 0.2 μg/cm^2, 48 h) [%] |
| --- | --- | --- | --- | --- | --- | --- | --- | --- | --- | --- | --- | --- | --- | --- | --- | --- | --- | --- | --- | --- |
| CSc1ccc(C(=O)N(C)c2cccc(C(=O)Nc3c(I)cc(C(F)(C(F)(F)F)C(F)(F)F)cc3C(F)(F)F)c2F)cc1 [Compound 53] | 90 | 90 | 95 | 95 | 95 | ≥ 70 | ≥ 70 | ≥ 70 | 100 | 100 | 95 | 95 | 95 | 95 | 95 |  |  |  |  |  |
| CN(C(=O)c1ccc(Cl)c(Cl)c1)c1cccc(C(=O)Nc2c(I)cc(C(F)(C(F)(F)F)C(F)(F)F)cc2C(F)(F)F)c1F [Compound 44] | 90 | 90 |  | 95 | 95 | ≥ 70 | ≥ 70 | ≥ 70 | 100 | 100 |  |  | 95 | 95 | 95 | 90 | 90 |  |  |  |
| CN(C(=O)c1ccc(C(F)(F)F)nc1)c1cccc(C(=O)Nc2c(I)cc(C(F)(C(F)(F)F)C(F)(F)F)cc2OC(F)(F)F)c1F [Compound 117, N-(2-fluoro-3-((2-iodo-4-(perfluoropropan-2-yl)-6-(trifluoromethoxy)phenyl)carbamoyl)phenyl)-N-methyl-6-(trifluoromethyl)nicotinamide] |  |  |  | 95 | 95 | ≥ 70 | ≥ 70 | ≥ 70 | 100 | 100 |  | 95 | 95 | 95 | 95 | 90 | 90 | 90 | 100 |  |
| CN(C(=O)c1ccc(F)cc1)c1cccc(C(=O)Nc2c(I)cc(C(F)(C(F)(F)F)C(F)(F)F)cc2[S+]([O-])C(F)(F)F)c1F (stereo not drawn) [Compound 69] |  |  |  | 95 | 95 | ≥ 70 | ≥ 70 | ≥ 70 | 100 | 100 |  | 95 | 95 | 95 | 95 | 90 | 90 | 90 |  | 90 |
| CN(C(=O)c1ccc(C#N)cc1)c1cccc(C(=O)Nc2c(Br)cc(C(F)(C(F)(F)F)C(F)(F)F)cc2OC(F)(F)F)c1F [Compound 88] | 90 | 90 |  | 95 | 95 | ≥ 70 | ≥ 70 | ≥ 70 | 100 | 100 |  | 95 | 95 | 95 | 95 | 90 | 90 |  | 100 |  |

From patent publication US11696913B2, “Prolonged ectoparasite-controlling agent for animal” (MITSUI CHEMICALS AGRO, INC., priority 2017, dated 2023)
